Legend:
healthy volunteers = experiment: Clinical study of 1033, single and multiple oral doses (Example 23); format: in vivo
Procedure: 1033 was administered to healthy volunteers in a 2-part study comprising single dose administration (Stage A) and multidose administration (Stage B).
The objectives of the following trials were to determine the safety, tolerability and pharmacokinetics of single and multiple oral doses of 1033 in healthy volunteers. Double-blind studies were conducted. The protocol included safety measures designed to capture the potential human adverse effects. A total of 65 healthy subjects have been exposed to doses of 1033 (41 single dose, 24 multiple dose).
In Stage A, fifty five (55) healthy male subjects aged 18-50 years were randomised (3:1) to receive a single oral dose of either placebo or 1033 at one of 7 dose levels (25, 50, 100, 200, 300, 500 or 800 mg).
In Stage B, thirty two (32) healthy male and female subjects aged 45-75 years (eight subjects per dose level) were randomised (3:1) to receive a daily oral dose over 7 consecutive days of either placebo or 1033 at one of 4 dose levels (200, 400, 600 or 800 mg). Each dose level comprised of 4 males and 4 females; the randomisation schedule ensuring that 1 subject/sex received placebo and 3 subjects/sex received 1033.

[1] = tested on: transgenic Huntington's mice (R6/2); experiment: PBT1033 effects in transgenic Huntington's mice (Example 22); format: in vivo, mouse
From the text: This example describes an in vivo study of PBT1033 in transgenic Huntington's mice (R6/2) using the procedure of Nyuyen, Harby and Massa, 2005. During this study, 44 samples were collected for behavioral tests, including Rotarod performance, clasping tests, body weight and lifespan observations, and 24 samples were utilized for pathology assessments, including brain sectioning and staining for measuring lateral ventricle size, brain weight, whole brain western blotting for mutant Htt aggregate accumulation, and immunocytochemistry for Htt aggregates.
GROUP A: 10+6 (pathology) R6/2 MICE, treated daily with PBT1033
GROUP B: 10+6 (pathology) R6/2 MICE, treated daily with SSV solution
GROUP C: 12+6 (pathology) wild type (WT) mice, treated daily with PBT1033
GROUP D: 12+6 (pathology) WT mice, treated daily with SSV solution
3. PBT1033 in SSV solution was orally administered to mice at 0.6 mg/0.1 ml ([…])/20 g. The PBT1033 solution was taken up into a 1-cc syringe attached to a feeding needle and the drug was delivered by oral gavage.
4. Rotarod was assessed as described by Hockly et al., the contents of which are incorporated by reference, with the modification that the SDI Rota—Rod (San Diego Instruments, San Diego), was set to linearly increase in speed to 40 rpm in 4-min ramp time. Performance is at 4th, 8th, 10th, and 12th week, with three days (one for training) per period and three times per day.
5. Body Weight: once per week, start at age 3 weeks.
6. Clasping testing and Behavioral observation: once per week from 5th week and daily during the drug treating.
7. Lifespan observation: Group A and B were treated until they died.
8. Brain lateral ventricle size: mouse brain perfusion, sectioning and staining at age 10 weeks. Mice brains were perfused and fixed with 4% PFA and stained with H&E.
9. Whole Brain Western Blotting: whole mouse brain was homogenized in buffer (10 mM Tris HCl (pH 7.4) 11 mM EDTA Na2/1% Triton X100/complete protease inhibitor mixture and then centrifuged at 7000×g for 90 s. The supernatant was boiled in SDS sample buffer for 5 mm at 100° C.
40 micrograms of total protein was run on a 10% SDS gel with a 4% stacking gel. Antibody: anti-GAPDH (1:5000), EM48 anti-Htt antibody (1:1000)
10. Brain weight: brain weighed before freezing at −80° C.
11. Immunohistochemistry was performed in accordance with the procedure in Assay 15, hereinabove.

B:P Ratio = format: in vivo
[2] = Mice plasma concentration; format: in vivo
[3] = molecular target: T1, hydrogen peroxide generation by Aβ in the presence of copper (Homo sapiens, UniProt P05067); experiment: Fluorometric H2O2 assay (Assay 1); format: biochemical; conditions: Aβ 1-42 with Cu-Gly, DCF/HRP, 37 C 60 min; several values in one cell = repeat determinations; read-out: Peroxide IC50
T1 construct: The reaction solutions contained Aβ 1-42 at concentrations in the range of 50 nM to 1 μM
In short: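 Aβ1-42 (50 nM–1 μM) with Cu-glycine (2 Cu-Gly : 1 Aβ) and a reductant (dopamine 5 μM or ascorbic acid) was incubated 60 min at 37 °C in PBS pH 7.4 with test compound. H2O2 was detected with 100 μM deacetylated DCF and 0.1 μM HRP by fluorescence against H2O2 standards.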

[4] = Toxicity at 30 mg/kg (In vivo Efficacy and Safety Profile)

T1 sequence (P05067 672-713 limits assumed): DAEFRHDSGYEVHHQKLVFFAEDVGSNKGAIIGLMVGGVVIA

Row | SMILES | tolerability, single oral dose (healthy volunteers; Stage A, healthy male volunteers aged 18 to 50 years, 25-800 mg) | clinical laboratory evaluations and physical assessments (healthy volunteers; Stage A, single oral dose) | incidence of adverse events (healthy volunteers; Stage A, single oral dose) | tolerability, multiple dose (healthy volunteers; Stage B, healthy elderly subjects, daily oral dose over 7 days, 200-800 mg) | life span ([1]; Group A (PBT1033) compared with Group B (SSV)) | clasping latency and duration ([1]; Group B (SSV) compared with Group A (PBT1033)) | body weight ([1]; Group B (SSV) vs A, C and D groups) | brain weight ([1]; R6/2 mice, Group A) | rotarod performance time ([1]; R6/2 mice, Group A, 10th week) | rotarod performance time ([1]; R6/2 mice, Group A, 12 week) | Lateral ventricle area ([1]; R6/2 mice, Group A, age 10 weeks) | mutant Huntingtin (Htt) protein aggregates, Western analysis ([1]; whole brain, HDexon1 mice) | B:P Ratio (B:P Ratio; at 5 min) | B:P Ratio (B:P Ratio; at 60 min) | Mice plasma concentration [2] | IC50 [3] | Toxicity at 30 mg/kg [4]
1 | CN(C)Cc1ccc2c(Cl)cc(Cl)c(O)c2n1.Cl [compound 1033, 5,7-Dichloro-2-dimethylaminomethyl-quinolin-8-ol hydrochloride] | well tolerated | No clinically significant or relevant changes | 43.9% | generally well tolerated | survived significantly longer | significantly greater | significantly decreased | 0.373±0.0228 | 28 ± 4 s | 26 ± 4 s | 0.36±0.086 mm^2 | not in treated animals | 12.85 | 9.45 | Up to 500 ng/ml | 380 nM | None
2 | Cn1cnc(CCNC(=O)c2ccc3c(Cl)cc(Cl)c(O)c3n2)c1 [compound 1050, 5,7-dichloro-8-hydroxyquinoline-2-carboxylic acid [2-(1-methyl-1H-imidazol-4-yl)-ethyl]-amide] | – | – | – | – | – | – | – | – | – | – | – | – | – | – | – | 280 nM | –

From patent US9302993B2, “8-hydroxy quinoline derivatives” (PRANA BIOTECHNOLOGY LIMITED, priority 2002, dated 2016)
